Measurements published in patent publication US20220259164A1, “USE OF AMINOTHIOL COMPOUNDS AS CEREBRAL NERVE OR HEART PROTECTIVE AGENT” (SHANGHAI KECHOW PHARMA, INC., priority 2019, published 2022).
Values joined by “and” are separate entries in the source; they are usually repeats but may differ in a detail not shown here. Equal entries are not always repeated. Where a SMILES comes first, the peptide text is derived from it. [ ]: non-standard residue; d: D form. NMeC = CN[C@@H](CS)C(=O)O

Columns and labels:
[1] = Body weight of cisplatin-induced SD rats; type: in vivo, rat; details: 30 min prior to cisplatin 5 mg/kg i.p.: compound B 200 mg/kg i.p., compound A 800 mg/kg p.o., amifostine 200 mg/kg i.p.; weighed daily
Protocol: Healthy male SPF grade SD rats (body weight 250-300 g) were selected. Cisplatin+compound B group: 5 mg/kg i.p.+compound B at 200 mg/kg i.p., with compound B being administered 30 min prior to cisplatin administration Cisplatin+amifostine group: 5 mg/kg i.p.+AMI at 200 mg/kg i.p., with AMI being administered 30 min prior to cisplatin administration Cisplatin+compound A group: 5 mg/kg i.p.+compound A at 800 mg/kg p.o., with compound A being administered 30 min prior to cisplatin administration (1) The SD rats used in the experiment were weighed, labeled, and evenly divided into 5 groups, with 3 SD rats in each group. (2) The compound B, compound A, and AMI groups were respectively administered at the planned concentrations. […] (3) The rats were weighed and recorded daily, and on day 5, blood was taken from the intraocular canthus of the SD rats and placed in an anticoagulant tube.

[2] = test system: bleomycin (BLM)-induced scleroderma mouse model; test: Dermal fibrosis in bleomycin (BLM)-induced scleroderma mouse model (H-E staining); type: in vivo, mice; details: compound A (hydrochloride) 600 mg/kg/d by gavage or compound B (trifluoroacetate) 200 mg/kg/d i.p., 28 days with BLM; compared with BLM model group
From the text: Materials: C57BL/6 female mice, weighing 20-25 g, were purchased from Shanghai SLAC Laboratory Animal Co., Ltd. Using a random number table method, 24 mice were divided into a blank control group (1), a scleroderma model group (2), a scleroderma+compound A treatment group (3), and a scleroderma+compound B treatment group (4), with 6 mice in each group. Bleomycin (BLM) was purchased from Sigma. An H-E staining kit was purchased from Beijing Solarbio Science & Technology Co., Ltd. Compound A used in this example was in the form of a hydrochloride thereof, and compound B was in the form of a trifluoroacetate thereof.
Method: The intended injection site (area 1 cm^2) of the mice was shaved using an electric shaver. The mice in groups (1) and (2) were intraperitoneally injected with PBS, the mice in group (3) were given compound A (600 mg/kg/d, dissolved in PBS) by gavage, and the mice in group (4) were intraperitoneally injected with compound B (200 mg/kg/d, dissolved in PBS). Immediately thereafter, the mice in group (1) were injected with PBS subcutaneously on the back, and the mice in groups (2) and (4) were injected with BLM (1 mg/ml, dissolved in PBS) subcutaneously on the back; and 15 min later, the mice in group (3) were injected with BLM (1 mg/ml, dissolved in PBS) subcutaneously on the back. After 28 days of continuous administration once a day, the animals were sacrificed on day 29 by cervical dislocation. Conventional iodine tincture was used to disinfect the back skin of the mice, and a local diseased skin tissue was surgically cut, fixed in 4% paraformaldehyde, embedded in paraffin, sectioned, and analyzed by H-E staining.

[3] = test system: SD rat cerebral ischemia reperfusion injury model (MCAO); test: Neurobehavioral evaluation (5-point Longa/Bederson score) in rat ischemic stroke model (MCAO); type: in vivo; design: key to Neurological function score After modeling: Longa/Bederson 5-point scale (0-4); higher = more severe deficit; details: for Neurological function score After modeling: individual rats
From the text: Healthy male SPF grade SD rats (body weight 250-300 g) were selected. […] (2) A midline neck incision was made to expose the right common carotid artery, internal carotid artery and external carotid artery. A 6-0 silk thread was used to ligate the distal end of the external carotid artery at 4 mm from the bifurcation of the common carotid artery, another 6-0 silk thread was inserted at the external carotid artery, and a slipknot was tied near the bifurcation of the common carotid artery. (3) An arterial clamp was used to clamp the common carotid artery. […] (4) The thread embolism was removed 90 min after ischemia, the proximal end of the external artery was ligated with a 6-0 silk thread, the neck wound was sutured with a 3-0 silk thread, the wound was disinfected with povidone iodine, the rats were placed on a heating pad, and after being awake, they were placed in a constant temperature rearing box for rearing. […] The experimental animals were scored for signs of neurological function deficit before and after modeling. The scoring standard was given by reference to the 5-point system of Longa and Bederson. The scoring was performed 24 h after the animals were awake from anesthesia. The higher the score, the more severe the behavioral disorder of the animals. 0 point: No nerve damage symptoms […] Inability to fully extend the contralateral front paw […] Turning in a circle to the opposite side […] Falling over to the opposite side 4 points: Inability to walk spontaneously, and loss of consciousness In a manner same as in Example 1, experimental animals were selected, except that the experiment was divided into seven groups (i.e., groups […], and G, among which groups C, D, and E were given different dosages of administration from Example 1, group F was given edaravone, and group G was given amifostine).

[4] = test system: radiation intestinal injury in C57 male mice; test: Protective effect on radiation intestinal injury (HE staining of small intestine); type: in vivo; details: 517 mpk i.p. 30 min before 16 Gy abdominal irradiation; fifth day
Protocol: C57 male mice were randomly divided into 4 groups, namely a blank control group, an irradiation group, a compound B (TFA) irradiation group, and an AMI irradiation group, respectively. The mode of administration for each group was an intraperitoneal injection, 30 min before irradiation. The dosage of administration was 517 mpk, and the abdominal irradiation dose was 16 Gy. On the fifth day, the small intestine tissue was taken for HE staining.

[5] = test system: radiation-induced hematopoietic system injury in C57 male mice; test: Protective effect on radiation-induced hematopoietic system injury (peripheral blood indicators); type: in vivo; details: 517 mpk i.p. 30 min before 4 Gy whole body irradiation; day 15
Protocol: C57 male mice were randomly divided into 6 groups, namely a blank control group, an irradiation group, a compound B (TFA) group, an AMI group, a compound B (TFA) irradiation group, and an AMI irradiation group, respectively. The mode of administration for each group was an intraperitoneal injection, 30 min before irradiation. The dosage of administration was 517 mpk, and the whole body irradiation dose was 4 Gy. On day 15, samples were taken for detecting peripheral blood indicators.

[6] = test system: radiation lung injury in C57 male mice; test: Protective effect on radiation lung injury (HE staining of lung); type: in vivo; details: 517 mpk i.p. 30 min before 17 Gy right lung irradiation; months 2, 4, 6
Protocol: C57 male mice were randomly divided into 4 groups, namely a blank control group, an irradiation group, a compound B (TFA) irradiation group, and an AMI irradiation group, respectively. The mode of administration for each group was an intraperitoneal injection, 30 min before irradiation. The dosage of administration was 517 mpk, and the irradiation dose to the right lung was 17 Gy. […] Lung tissues were taken at months 2, 4, and 6 for HE staining

[7] = Example 2 group D: compound A (trifluoroacetate) 400 mg/kg p.o. 2.5 h before reperfusion, 400 mg/kg
[8] = Example 2 group E: compound A (trifluoroacetate) 800 mg/kg p.o. 2.5 h before reperfusion, 800 mg/kg
[9] = Example 2 group C: compound B (trifluoroacetate) 100 mg/kg i.p. 5 min before reperfusion, 100 mg/kg

SMILES | Change in body weight of cisplatin-induced SD rats [1] | Collagen in the dermis and fat layer (H-E staining) [2] | Thickness of the dermis in the skin lesion area [2] | % Behavioral improvement ([3]; Example 1 group E: compound A (trifluoroacetate) 1600 mg/kg p.o. 2.5 h before reperfusion, 1600 mg/kg) | Neurological function score After modeling ([3]; Example 1 group E: compound A (trifluoroacetate) 1600 mg/kg p.o. 2.5 h before reperfusion, 24 h, 1600 mg/kg) | % Behavioral improvement [3, 7] | Neurological function score After modeling [3, 7] | % Behavioral improvement [3, 8] | Neurological function score After modeling [3, 8] | Changes in the intestinal villi structure (HE staining) [4] | LY % and NE % in the peripheral blood (abnormal differentiation) [5] | Numbers of WBC, RBC and PLT in the peripheral blood [5] | Inflammatory cell infiltration / radiation pneumonitis in lung (HE staining) [6] | % Behavioral improvement ([3]; Example 1 group C: compound B (trifluoroacetate) 200 mg/kg i.p. 5 min before reperfusion, 200 mg/kg) | Neurological function score After modeling ([3]; Example 1 group C: compound B (trifluoroacetate) 200 mg/kg i.p. 5 min before reperfusion, 24 h, 200 mg/kg) | % Behavioral improvement ([3]; Example 1 group D: compound B (trifluoroacetate) 200 mg/kg i.p. during ischemia and 200 mg/kg i.p. 5 min before reperfusion) | Neurological function score After modeling ([3]; Example 1 group D: compound B (trifluoroacetate) 200 mg/kg i.p. during ischemia and 200 mg/kg i.p. 5 min before reperfusion, 24 h) | % Behavioral improvement [3, 9] | Neurological function score After modeling [3, 9]
CNC(=O)[C@H](CS)NC(=O)[C@H](CS)NC [Compound A, (R)-3-mercapto-N—((R)-3-mercapto-1-(methylamino)-1-oxoprop-2-yl)-2-(methylamino)propionamide] (H-[NMeC]-Cys-NHMe) | the degree of decrease was significantly better than that of the cisplatin group | the collagen thickness in the dermis was significantly reduced and the fat layer was significantly thickened | could better reduce the thickness of the dermis at the skin lesion site | 77.8% | 1 (2×) and 0 | 46.99% | 2 (3×) and 1 (3×) | 59.01% | 1 (5×) and 2 |  |  |  |  |  |  |  |  |  | 
CNC(=O)[C@H](CS)NC(=O)[C@H](CS)NC(=O)[C@H](CS)NC [Compound B, (R)-3-mercapto-N—((R)-3-mercapto-1-(((R)-3-mercapto-1-(methylamino)-1-oxoprop-2-yl)amino)-1-oxoprop-2-yl)-2-(methylamino)propionamide] (H-[NMeC]-Cys-Cys-NHMe) | the body weight increased rather than decrease | collagen proliferation in the dermis in the compound B treatment group was improved | reduced (p<0.01) |  |  |  |  |  |  | milder than that in the irradiation group | could alleviate this abnormal differentiation | could increase the numbers of such cells after irradiation | could partially relieve the inflammatory cell infiltration and reduce the occurrence of radiation pneumonitis | 66.7% | 0 and 1 (3×) and 2 | 66.7% | 1 | 29.32% | 1 and 2 (4×) and 3
